According to ChEMBL document CHEMBL5465560, “Selectivity Literature for EUbOPEN Chemogenomic Library” (2024):

Assays:
[1] = molecular target: Casein kinase I isoform gamma-2 (Homo sapiens) (UniProt P78368); assay: Selectivity interaction (Kinase panel (Z-LYTE Assay)) EUB0001632a CSNK1G2; conditions: at 10 µM
[2] = molecular target: Proto-oncogene tyrosine-protein kinase Src (Homo sapiens, UniProt P12931); assay: Selectivity interaction (KinomeScan (DiscoverX)) EUB0000666a SRC; conditions: at 10 µM
[3] = molecular target: BMP-2-inducible protein kinase (Homo sapiens) (UniProt Q9NSY1); assay: Selectivity interaction (Kinase panel (DSF assay)) EUB0001559a BMP2K
[4] = molecular target: T1, Serine/threonine-protein kinase TAO2 (Homo sapiens) (UniProt Q9UL54); assay: Selectivity interaction (KinomeScan (DiscoverX)) EUB0000595a TAOK2; conditions: at 10 µM
T1 sequence (whole entry): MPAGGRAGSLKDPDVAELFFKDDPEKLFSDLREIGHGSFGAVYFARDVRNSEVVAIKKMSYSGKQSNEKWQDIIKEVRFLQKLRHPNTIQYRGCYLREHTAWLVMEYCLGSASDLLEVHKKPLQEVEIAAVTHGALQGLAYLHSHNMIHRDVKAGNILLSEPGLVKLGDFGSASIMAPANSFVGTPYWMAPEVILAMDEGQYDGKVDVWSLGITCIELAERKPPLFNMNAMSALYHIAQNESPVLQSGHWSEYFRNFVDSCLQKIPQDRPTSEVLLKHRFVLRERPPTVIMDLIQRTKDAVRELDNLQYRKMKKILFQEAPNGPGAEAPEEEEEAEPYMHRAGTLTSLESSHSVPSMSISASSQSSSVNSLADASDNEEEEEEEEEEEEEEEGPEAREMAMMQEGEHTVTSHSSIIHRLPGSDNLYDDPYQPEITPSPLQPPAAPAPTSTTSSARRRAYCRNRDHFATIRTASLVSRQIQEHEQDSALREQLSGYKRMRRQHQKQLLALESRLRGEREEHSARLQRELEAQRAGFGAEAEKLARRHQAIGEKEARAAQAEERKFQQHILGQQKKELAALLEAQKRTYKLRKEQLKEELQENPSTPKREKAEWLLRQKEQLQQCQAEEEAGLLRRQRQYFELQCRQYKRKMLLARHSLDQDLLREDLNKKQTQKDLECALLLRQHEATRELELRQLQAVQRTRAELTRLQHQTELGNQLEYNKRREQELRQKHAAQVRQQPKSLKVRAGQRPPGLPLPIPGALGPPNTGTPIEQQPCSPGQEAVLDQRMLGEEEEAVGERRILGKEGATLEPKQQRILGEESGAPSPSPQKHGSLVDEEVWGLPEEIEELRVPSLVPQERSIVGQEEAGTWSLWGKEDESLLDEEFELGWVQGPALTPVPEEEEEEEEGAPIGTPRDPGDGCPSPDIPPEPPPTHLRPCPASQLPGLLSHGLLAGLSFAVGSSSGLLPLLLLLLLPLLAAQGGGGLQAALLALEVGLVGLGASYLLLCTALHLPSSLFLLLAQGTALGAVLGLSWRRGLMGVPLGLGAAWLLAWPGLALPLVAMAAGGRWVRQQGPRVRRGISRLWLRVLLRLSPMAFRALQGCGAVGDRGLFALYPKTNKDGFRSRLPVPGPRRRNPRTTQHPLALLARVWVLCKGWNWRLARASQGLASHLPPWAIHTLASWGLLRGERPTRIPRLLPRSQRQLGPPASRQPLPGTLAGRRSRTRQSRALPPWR

[5] = molecular target: T2, Activin receptor type-1B (Homo sapiens) (UniProt P36896); assay: Selectivity interaction (KinomeScan (DiscoverX)) EUB0001079a ACVR1B; conditions: at 1 µM
T2 sequence (whole entry): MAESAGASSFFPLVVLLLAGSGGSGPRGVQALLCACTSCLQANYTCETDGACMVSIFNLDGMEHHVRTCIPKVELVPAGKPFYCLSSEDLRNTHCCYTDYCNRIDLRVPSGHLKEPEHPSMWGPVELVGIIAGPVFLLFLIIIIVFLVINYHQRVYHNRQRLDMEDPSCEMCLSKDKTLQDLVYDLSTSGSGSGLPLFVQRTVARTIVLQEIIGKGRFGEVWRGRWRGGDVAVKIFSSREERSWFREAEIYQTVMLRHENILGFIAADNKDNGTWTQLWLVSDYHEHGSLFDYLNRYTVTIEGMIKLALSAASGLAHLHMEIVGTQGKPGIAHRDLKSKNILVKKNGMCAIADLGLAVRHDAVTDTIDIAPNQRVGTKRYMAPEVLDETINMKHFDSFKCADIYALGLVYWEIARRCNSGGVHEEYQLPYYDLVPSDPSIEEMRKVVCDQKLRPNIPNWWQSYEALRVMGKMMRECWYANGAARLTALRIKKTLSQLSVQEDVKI

[6] = molecular target: T3, Serine/threonine-protein kinase ULK2 (Homo sapiens) (UniProt Q8IYT8); assay: Selectivity interaction (KinomeScan (DiscoverX)) EUB0000229b ULK2; conditions: at 10 µM
T3 sequence (whole entry): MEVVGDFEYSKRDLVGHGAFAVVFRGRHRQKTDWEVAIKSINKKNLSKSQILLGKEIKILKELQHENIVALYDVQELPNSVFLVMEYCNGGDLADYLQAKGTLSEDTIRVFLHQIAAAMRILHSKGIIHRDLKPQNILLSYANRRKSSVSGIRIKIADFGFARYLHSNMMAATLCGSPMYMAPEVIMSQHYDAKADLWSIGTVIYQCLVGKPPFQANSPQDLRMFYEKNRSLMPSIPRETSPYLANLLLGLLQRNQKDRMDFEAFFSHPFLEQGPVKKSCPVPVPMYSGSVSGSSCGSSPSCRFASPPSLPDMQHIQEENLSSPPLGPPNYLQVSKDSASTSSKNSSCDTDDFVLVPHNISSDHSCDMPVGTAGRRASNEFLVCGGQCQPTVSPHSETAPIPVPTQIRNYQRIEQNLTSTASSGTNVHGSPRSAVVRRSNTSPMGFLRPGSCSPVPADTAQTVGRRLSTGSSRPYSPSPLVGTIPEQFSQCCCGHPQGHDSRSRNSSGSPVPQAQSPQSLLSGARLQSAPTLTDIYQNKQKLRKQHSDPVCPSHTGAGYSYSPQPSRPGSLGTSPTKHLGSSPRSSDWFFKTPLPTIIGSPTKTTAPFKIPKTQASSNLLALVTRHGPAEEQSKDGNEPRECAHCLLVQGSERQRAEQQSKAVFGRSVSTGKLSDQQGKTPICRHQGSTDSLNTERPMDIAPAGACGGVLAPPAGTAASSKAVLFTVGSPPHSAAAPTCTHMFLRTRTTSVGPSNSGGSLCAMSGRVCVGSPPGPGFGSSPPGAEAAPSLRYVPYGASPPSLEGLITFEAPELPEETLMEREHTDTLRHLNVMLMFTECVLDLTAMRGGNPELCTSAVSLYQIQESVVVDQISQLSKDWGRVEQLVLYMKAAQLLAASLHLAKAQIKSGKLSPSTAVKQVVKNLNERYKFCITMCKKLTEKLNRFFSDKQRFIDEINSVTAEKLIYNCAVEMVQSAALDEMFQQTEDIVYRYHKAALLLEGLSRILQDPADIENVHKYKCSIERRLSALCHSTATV

Sequence of Proto-oncogene tyrosine-protein kinase Src (P12931 2-536 limits assumed): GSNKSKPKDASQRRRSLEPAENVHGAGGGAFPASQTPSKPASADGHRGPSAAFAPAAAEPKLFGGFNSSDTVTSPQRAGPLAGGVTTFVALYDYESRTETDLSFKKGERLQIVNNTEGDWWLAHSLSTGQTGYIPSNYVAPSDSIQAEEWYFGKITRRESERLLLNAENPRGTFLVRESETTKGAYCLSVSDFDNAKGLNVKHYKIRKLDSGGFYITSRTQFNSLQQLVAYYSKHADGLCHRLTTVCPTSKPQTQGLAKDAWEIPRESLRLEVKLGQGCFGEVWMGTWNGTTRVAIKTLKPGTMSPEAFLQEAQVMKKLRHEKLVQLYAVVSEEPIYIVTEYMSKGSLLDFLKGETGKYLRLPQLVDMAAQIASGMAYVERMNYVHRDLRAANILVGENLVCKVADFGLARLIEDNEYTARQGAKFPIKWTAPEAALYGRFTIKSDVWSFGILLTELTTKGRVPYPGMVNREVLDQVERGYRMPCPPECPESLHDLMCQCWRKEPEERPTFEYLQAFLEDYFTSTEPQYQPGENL
Sequence of Casein kinase I isoform gamma-2 (Homo sapiens) (P78368 whole entry, looked up, canonical isoform): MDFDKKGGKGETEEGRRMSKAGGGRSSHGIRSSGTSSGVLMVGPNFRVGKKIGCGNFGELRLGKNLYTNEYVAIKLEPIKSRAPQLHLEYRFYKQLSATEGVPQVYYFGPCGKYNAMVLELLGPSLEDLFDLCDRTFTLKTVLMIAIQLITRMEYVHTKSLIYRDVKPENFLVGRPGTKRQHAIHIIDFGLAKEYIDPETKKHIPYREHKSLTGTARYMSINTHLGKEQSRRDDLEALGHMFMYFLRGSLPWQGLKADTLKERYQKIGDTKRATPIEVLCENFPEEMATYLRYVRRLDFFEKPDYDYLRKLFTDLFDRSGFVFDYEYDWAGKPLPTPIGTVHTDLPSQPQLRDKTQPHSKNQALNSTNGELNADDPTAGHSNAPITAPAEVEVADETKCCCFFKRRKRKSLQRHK
Sequence of BMP-2-inducible protein kinase (Homo sapiens) (Q9NSY1 whole entry, looked up): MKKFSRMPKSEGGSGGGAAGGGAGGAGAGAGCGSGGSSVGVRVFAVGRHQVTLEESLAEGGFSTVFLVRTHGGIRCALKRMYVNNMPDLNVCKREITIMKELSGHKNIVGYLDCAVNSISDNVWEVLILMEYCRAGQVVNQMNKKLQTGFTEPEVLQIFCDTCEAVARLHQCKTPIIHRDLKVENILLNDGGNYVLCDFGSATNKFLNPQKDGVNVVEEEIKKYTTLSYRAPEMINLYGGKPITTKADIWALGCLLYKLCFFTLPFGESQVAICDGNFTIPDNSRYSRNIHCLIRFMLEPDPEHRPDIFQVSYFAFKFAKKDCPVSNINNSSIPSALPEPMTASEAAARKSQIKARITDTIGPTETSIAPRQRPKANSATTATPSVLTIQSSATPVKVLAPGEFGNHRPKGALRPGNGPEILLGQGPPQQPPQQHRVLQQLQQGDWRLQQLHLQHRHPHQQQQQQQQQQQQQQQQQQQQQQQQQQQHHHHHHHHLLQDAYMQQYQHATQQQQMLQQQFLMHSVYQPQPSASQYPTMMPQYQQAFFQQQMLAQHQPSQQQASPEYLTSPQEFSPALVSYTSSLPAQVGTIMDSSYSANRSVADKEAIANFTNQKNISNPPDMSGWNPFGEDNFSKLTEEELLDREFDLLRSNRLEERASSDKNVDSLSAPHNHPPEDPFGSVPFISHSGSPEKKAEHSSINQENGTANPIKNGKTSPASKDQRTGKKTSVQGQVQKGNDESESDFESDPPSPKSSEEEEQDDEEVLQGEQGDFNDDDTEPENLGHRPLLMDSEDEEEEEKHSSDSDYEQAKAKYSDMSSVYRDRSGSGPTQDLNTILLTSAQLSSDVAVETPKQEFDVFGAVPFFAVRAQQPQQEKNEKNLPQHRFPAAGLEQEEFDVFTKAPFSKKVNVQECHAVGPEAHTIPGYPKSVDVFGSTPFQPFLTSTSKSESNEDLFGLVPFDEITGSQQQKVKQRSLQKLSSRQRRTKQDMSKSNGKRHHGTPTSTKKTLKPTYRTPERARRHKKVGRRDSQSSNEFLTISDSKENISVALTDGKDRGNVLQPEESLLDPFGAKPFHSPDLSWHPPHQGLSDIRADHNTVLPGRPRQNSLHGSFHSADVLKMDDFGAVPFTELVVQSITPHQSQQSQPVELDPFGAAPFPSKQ

## Cn1cc(-n2cnc3c(NCc4nc5cc(Cl)c(Cl)cc5[nH]4)nc(N4CCOCC4)nc32)cn1
[1]
  % of control: 13.1%

## O=C(NOC[C@H](O)CO)c1ccc(F)c(F)c1Nc1ccc(I)cc1F
[2]
  % of control: 69%

## CN(C(=O)c1cnn2cccnc12)c1cc2c(cc1N1CCOCC1)C(=O)N(C[C@@H](F)C(C)(C)O)C2
[3]
  dTM: -0.2 K

## COCC(=O)NC/C=C/c1ccc2ncnc(Nc3ccc(Oc4ccc(C)nc4)c(C)c3)c2c1 [CP-724714]
[4]
  % of control: 100%

## Nc1cnc(N2CCc3cc(S(=O)(=O)Nc4c(F)cc(Cl)cc4F)cc(N4CCCC4=O)c32)nc1 [TP-020n]
[5]
  % of control: 96%

## COc1cc(N(C)c2ccnc3ccc(C(F)(F)F)cc23)cc(OC)c1OC
[6]
  % binding: 86%
